Experimental data from ChEMBL document CHEMBL1201862, “PubChem BioAssay data set” (2004).
Active and inactive are the calls of the source. Rule as the data show it: actives have a measured IC50 and inactives only a lower limit.

Molecular target: Envelope glycoprotein gp160 (Human immunodeficiency virus 1, UniProt Q6QLK5)
Test: cell-free HIV fusion peptide-binding blockers – biochemical, uHTS, fluorescence dequenching, […] (AID 1986)

Sequence of Envelope glycoprotein gp160 (Q6QLK5 whole entry, the tested form may be a part): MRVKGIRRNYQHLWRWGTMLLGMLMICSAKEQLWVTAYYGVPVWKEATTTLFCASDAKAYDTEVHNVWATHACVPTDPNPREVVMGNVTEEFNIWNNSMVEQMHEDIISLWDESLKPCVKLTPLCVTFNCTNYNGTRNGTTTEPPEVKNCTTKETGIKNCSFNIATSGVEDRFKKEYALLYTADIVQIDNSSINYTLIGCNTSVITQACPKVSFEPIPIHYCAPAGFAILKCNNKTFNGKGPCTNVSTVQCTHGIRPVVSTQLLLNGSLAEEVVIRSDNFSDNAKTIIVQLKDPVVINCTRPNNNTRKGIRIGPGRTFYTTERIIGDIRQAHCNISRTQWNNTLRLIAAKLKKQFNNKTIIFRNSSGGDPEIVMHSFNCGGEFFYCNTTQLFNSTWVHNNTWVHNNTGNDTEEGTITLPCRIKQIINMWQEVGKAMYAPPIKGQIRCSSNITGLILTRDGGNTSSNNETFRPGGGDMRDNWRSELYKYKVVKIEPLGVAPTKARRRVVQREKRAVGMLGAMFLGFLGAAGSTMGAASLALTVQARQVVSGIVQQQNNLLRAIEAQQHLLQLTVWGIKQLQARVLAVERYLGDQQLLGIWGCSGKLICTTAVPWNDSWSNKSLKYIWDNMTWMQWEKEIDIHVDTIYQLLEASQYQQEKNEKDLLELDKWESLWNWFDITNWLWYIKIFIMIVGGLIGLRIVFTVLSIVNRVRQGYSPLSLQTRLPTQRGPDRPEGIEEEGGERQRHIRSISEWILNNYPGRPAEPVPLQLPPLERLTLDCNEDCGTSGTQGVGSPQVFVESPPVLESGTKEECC

SMILES | IC50
CCOC(=O)C1=C(C)N=c2s/c(=C/c3ccc(OCC(=O)O)cc3)c(=O)n2C1c1ccc(SC)cc1 (configuration not stated) | 12.7 µM (active)
C=CCOC(=O)C1=C(C)N=c2s/c(=C3\C(=O)N(CC(=O)O)c4ccccc43)c(=O)n2C1c1ccc(OC)cc1 (configuration not stated) | 18 µM (active)
